This test addresses T1, E. coli CsgA (Escherichia coli, UniProt P28307).
T1 construct: made in house; host or cells: E. coli NEB 3016 slyD::kan, pET11d
The experiment in a line: In vitro ThioflavinT assay of CsgA aggregation (CsgA ThT Assay). The class given is biochemical. The conditions noted are these: CsgA 2 μM, white plates; for remaining activity at 25 µM: compound 25 μM; for remaining activity at 100 µM: compound 100 μM. The gist of the method: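 Purified C-terminal His-tagged CsgA, monomerised by desalting and 30-kDa filtration, at 2-20 μM with 20-40 μM ThT in 50 mM potassium phosphate pH 7.3, 1% DMSO, compounds 3.125-200 uM; room temperature, fluorescence (ex 438/em 495 nm) read every 15 min. Background-subtracted signal expressed as percent inhibition versus vehicle at 6-6.5 or 8-9 h, or as percent control AUC.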

Where [1] appears, read: read-out: CsgA ThT Assay (2 μM CsgA) % Control Bmax 25 μM, activity range, class symbol.
Where [2] appears, read: read-out: CsgA ThT Assay (2 μM CsgA) % Control Bmax 25 μM, mean Bmax as percentage of DMSO control.
Setting [3] is: read-out: CsgA ThT Assay (2 μM CsgA) % Control Bmax 100 μM, activity range, class symbol.
[4] abbreviates: read-out: CsgA ThT Assay (2 μM CsgA) % Control Bmax 100 μM, mean Bmax as percentage of DMSO control.

Where two headings read alike, the source gives them in different places.

T1 sequence (P28307 23-151): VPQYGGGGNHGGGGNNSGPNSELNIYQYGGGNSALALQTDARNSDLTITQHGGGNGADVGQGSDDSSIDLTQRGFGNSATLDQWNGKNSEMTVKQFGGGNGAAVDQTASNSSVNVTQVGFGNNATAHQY

Regarding `CCCCN1CC(C(=O)O)n2c(c(-c3cccc(C(F)(F)F)c3)c(Cc3cccc4ccccc34)c(C(N)=O)c2=O)S1(=O)=O` (centres unmarked) [Compound 177, 2-butyl-7-carbamoyl-8-(naphthalen-1-ylmethyl)-6-oxo-9-(3-(trifluoromethyl)phenyl)-3,4-dihydro-2H,6H-pyrido[1,2-e][1,2,5]thiadiazine-4-carboxylic acid 1,1-dioxide], the remaining activity at 25 µM by setting is: under setting [1], 31 to 60%; under setting [2], 32%. For the same compound, the remaining activity at 100 µM is, setting by setting: under setting [3], 11 to 31%; under setting [4], 21%.
For `O=C(O)C1CN(CCc2ccccc2)c2c(-c3cccc(C(F)(F)F)c3)c(Cc3cccc4ccccc34)c(Cl)c(=O)n21` (centres unmarked) [Compound 178, 6-chloro-7-(naphthalen-1-ylmethyl)-5-oxo-1-phenethyl-8-(3-(trifluoromethyl)phenyl)-1,2,3,5-tetrahydroimidazo[1,2-a]pyridine-3-carboxylic acid] the same measures were 31 to 60%, 57%, less than 10% and 9%.
For `CC(C)N1CC(C(=O)O)n2c1c(-c1cccc(C(F)(F)F)c1)c(Cc1cccc3ccccc13)c(Cl)c2=O` (centres unmarked) [Compound 179, 6-chloro-1-isopropyl-7-(naphthalen-1-ylmethyl)-5-oxo-8-(3-(trifluoromethyl)phenyl)-1,2,3,5-tetrahydroimidazo[1,2-a]pyridine-3-carboxylic acid] the same measures were greater than 60%, 65%, 31 to 60% and 48%.
For `O=C(O)C1CN(CC2CCCCC2)c2c(-c3cccc(C(F)(F)F)c3)c(Cc3cccc4ccccc34)c(Cl)c(=O)n21` (centres unmarked) [Compound 180, 6-chloro-1-(cyclohexylmethyl)-7-(naphthalen-1-ylmethyl)-5-oxo-8-(3-(trifluoromethyl)phenyl)-1,2,3,5-tetrahydroimidazo[1,2-a]pyridine-3-carboxylic acid] the same measures were greater than 60%, 65%, 11 to 31% and 21%.
For `O=C(O)C1CN(Cc2ccccc2CO)c2c(-c3cccc(C(F)(F)F)c3)c(Cc3cccc4ccccc34)c(Cl)c(=O)n21` (centres unmarked) [Compound 181, 6-chloro-1-(2-(hydroxymethyl)benzyl)-7-(naphthalen-1-ylmethyl)-5-oxo-8-(3-(trifluoromethyl)phenyl)-1,2,3,5-tetrahydroimidazo[1,2-a]pyridine-3-carboxylic acid], the remaining activity at 25 µM was 31 to 60% under setting [1] and 57% under setting [2]. The remaining activity at 100 µM under setting [3] was 31 to 60% and the remaining activity at 100 µM under setting [4] came to 40%.
For `O=C(O)C1CN(CC2CCOCC2)c2c(-c3cccc(C(F)(F)F)c3)c(Cc3cccc4ccccc34)c(Cl)c(=O)n21` (centres unmarked) [Compound 182, 6-chloro-7-(naphthalen-1-ylmethyl)-5-oxo-1-((tetrahydro-2H-pyran-4-yl)methyl)-8-(3-(trifluoromethyl)phenyl)-1,2,3,5-tetrahydroimidazo[1,2-a]pyridine-3-carboxylic acid], the remaining activity at 25 µM was greater than 60% under setting [1] and 68% under setting [2]. The remaining activity at 100 µM was greater than 60% under setting [3] and 61% under setting [4].
`NC(=O)c1c(Cc2cccc3ccccc23)c(-c2cccc(C(F)(F)F)c2)c2n(c1=O)C(C(=O)O)CN(CCCO)S2(=O)=O` (centres unmarked) [Compound 184, 7-carbamoyl-2-(3-hydroxypropyl)-8-(naphthalen-1-ylmethyl)-6-oxo-9-(3-(trifluoromethyl)phenyl)-3,4-dihydro-2H,6H-pyrido[1,2-e][1,2,5]thiadiazine-4-carboxylic acid 1,1-dioxide]: the remaining activity at 25 µM is 31 to 60% under setting [1] and 45% under setting [2]. The remaining activity at 100 µM is 11 to 31% under setting [3] and 22% under setting [4].
For `O=C(O)C1CN(Cc2ccccc2)c2c(-c3cccc(C(F)(F)F)c3)c(Cc3cccc4ccccc34)cc(=O)n21` (centres unmarked) [Compound 187, 1-benzyl-7-(naphthalen-1-ylmethyl)-5-oxo-8-(3-(trifluoromethyl)phenyl)-1,2,3,5-tetrahydroimidazo[1,2-a]pyridine-3-carboxylic acid] the same measures were greater than 60%, 69%, greater than 60% and 74%.
For `O=C(O)C1CN(CCCCCCCN2CC(C(=O)O)n3c2c(-c2cccc(C(F)(F)F)c2)c(Cc2cccc4ccccc24)c(Cl)c3=O)c2c(-c3cccc(C(F)(F)F)c3)c(Cc3cccc4ccccc34)c(Cl)c(=O)n21` (centres unmarked) [Compound 188, 1,1′-(heptane-1,7-diyl)bis(6-chloro-7-(naphthalen-1-ylmethyl)-5-oxo-8-(3-(trifluoromethyl)phenyl)-1,2,3,5-tetrahydroimidazo[1,2-a]pyridine-3-carboxylic acid)] the same measures were 31 to 60%, 33%, 11 to 31% and 14%.
As for `COc1ccc(CN2CC(C(=O)O)n3c2c(-c2cccc(C(F)(F)F)c2)c(Cc2cccc4ccccc24)c(Cl)c3=O)cc1` (centres unmarked) [Compound 192, 6-chloro-1-(4-methoxybenzyl)-7-(naphthalen-1-ylmethyl)-5-oxo-8-(3-(trifluoromethyl)phenyl)-1,2,3,5-tetrahydroimidazo[1,2-a]pyridine-3-carboxylic acid], the remaining activity at 25 µM under setting [1] was greater than 60% and the remaining activity at 25 µM under setting [2] came out at 87%. Besides, the remaining activity at 100 µM is greater than 60% under setting [3] and 95% under setting [4].
In the case of `O=C(O)C1CN(CCCCCCN2CC(C(=O)O)n3c2c(-c2cccc(C(F)(F)F)c2)c(Cc2cccc4ccccc24)c(Cl)c3=O)c2c(-c3cccc(C(F)(F)F)c3)c(Cc3cccc4ccccc34)c(Cl)c(=O)n21` (centres unmarked) [Compound 193, 1,1′-(hexane-1,6-diyl)bis(6-chloro-7-(naphthalen-1-ylmethyl)-5-oxo-8-(3-(trifluoromethyl)phenyl)-1,2,3,5-tetrahydroimidazo[1,2-a]pyridine-3-carboxylic acid)], the remaining activity at 25 µM runs as follows: under setting [1], 31 to 60%; under setting [2], 53%. Moreover, the remaining activity at 100 µM was less than 10% under setting [3] and 10% under setting [4].
On to `O=C(O)C1CN(Cc2ccccc2)c2c(-c3cccc(C(F)(F)F)c3)c(Cc3cccc4ccccc34)c(F)c(=O)n21` (centres unmarked) [Compound 194, 1-benzyl-6-fluoro-7-(naphthalen-1-ylmethyl)-5-oxo-8-(3-(trifluoromethyl)phenyl)-1,2,3,5-tetrahydroimidazo[1,2-a]pyridine-3-carboxylic acid], for which the remaining activity at 25 µM by setting is: under setting [1], greater than 60%; under setting [2], 100%. For the same compound, the remaining activity at 100 µM runs as follows: under setting [3], greater than 60%; under setting [4], 67%.
Turning to `O=C(O)C1CN(Cc2cccc(O)c2)c2c(-c3cccc(C(F)(F)F)c3)c(Cc3cccc4ccccc34)c(Cl)c(=O)n21` (centres unmarked) [Compound 196, 6-chloro-1-(3-hydroxybenzyl)-7-(naphthalen-1-ylmethyl)-5-oxo-8-(3-(trifluoromethyl)phenyl)-1,2,3,5-tetrahydroimidazo[1,2-a]pyridine-3-carboxylic acid], the remaining activity at 25 µM is greater than 60% under setting [1] and 67% under setting [2].

The values are drawn from patent US20230131899A1, “INHIBITORS OF MICROBIALLY INDUCED AMYLOID” (Axial Therapeutics, Inc., priority 2020, published 2023).
